≈ marks a conversion by molar mass, not a printed value. Where “and” joins values, the source holds several entries; their conditions need not be identical. Identical values can stand only once.
Legend:
Format in all cases: cell-based
H29 = experiment: MTT cytotoxicity assay, H29; conditions: replicate values
Method: (§1) IC50 was determined using an MTT assay.

HCT116 p53 −/− = experiment: MTT cytotoxicity assay, HCT116 p53 -/-; conditions: replicate values
Method: as §1

MDA-MB 435 = experiment: MTT cytotoxicity assay, MDA-MB 435
Method: For example, compound 1-[5-chloro-2-(4-methoxy-phenyl)-3-trifluoromethyl-indol-1-yl]-ethanone, prepared under Example 2 of the present application, has shown potential anticancer activity against several cancer cell lines.
as §1

MCF7 = experiment: MTT cytotoxicity assay, MCF7; conditions: replicate values
Method: as §1

HCT116 p53 +/+ = experiment: MTT cytotoxicity assay, HCT116 p53 +/+; conditions: replicate values
Method: as §1

Skov-3 = experiment: MTT cytotoxicity assay, Skov-3; conditions: replicate values
Method: as §1

[1] = Homo sapiens, HCT-116, MTT assay

Question: How did the IC50 (H29) turn out when `COc1ccc(-c2c(C(F)(F)F)c3cc(Cl)ccc3n2C(C)=O)cc1` [Example 2, 1-[5-chloro-2-(4-methoxy-phenyl)-3-trifluoromethyl-indol-1-yl]-ethanone] was run?
Answer: 9.6 mg/L (≈ 26.1 µM)

Question: And the “IC50 H29” value (H29)?
Answer: 9.8 mg/L (≈ 26.6 µM)

Question: What about the IC50 (HCT116 p53 −/−; [1]) of the same compound?
Answer: 13.2 mg/L (≈ 35.9 µM)

Question: What about the “IC50 HCT116 p53 −/−” value (HCT116 p53 −/−; MTT assay) of the same compound?
Answer: 8.4 mg/L and 9.4 mg/L and 9.2 mg/L

Question: And the “cytotoxicity against the MDA MB-435 cell line” value (MDA-MB 435; 10 micromolar (μM) concentration, MTT assay)?
Answer: 80.8%

Question: And the IC50 (MDA-MB 435; Homo sapiens, MDA-MB-435, MTT assay, replicate values)?
Answer: 11.1 mg/L (≈ 30.2 µM)

Question: What about the “IC50 MDA-MB 435” value (MDA-MB 435; MTT assay, replicate values) of the same compound?
Answer: 8.5 mg/L and 7.4 mg/L and 9.6 mg/L

Question: What about the IC50 (MCF7; Homo sapiens, MCF7, MTT assay) of the same compound?
Answer: 18.8 mg/L (≈ 51.1 µM)

Question: And the “IC50 MCF7” value (MCF7; MTT assay)?
Answer: 18 mg/L (≈ 48.9 µM)

Question: What about the IC50 (HCT116 p53 +/+; [1]) of the same compound?
Answer: 14.5 mg/L (≈ 39.4 µM)

Question: What about the “IC50 HCT116 p53 +/+” value (HCT116 p53 +/+; MTT assay) of the same compound?
Answer: 15.4 mg/L (≈ 41.9 µM)

Question: And the IC50 (Skov-3; Homo sapiens, SK-OV-3, MTT assay)?
Answer: 15.8 mg/L (≈ 43 µM)

Question: And the “IC50 Skov-3” value (Skov-3; MTT assay)?
Answer: 17.2 mg/L (≈ 46.8 µM)
